{
  "source": "patent US20150274680A1",
  "about": "“THERAPEUTIC OR PROPHYLACTIC AGENT FOR TUMOR LYSIS SYNDROME” (University of Fukui, priority 2012, published 2015)",
  "format_in_all_cases": "in vivo, human",
  "key": {"[1]": {"system": "high-risk tumor lysis syndrome patient", "assay": "Therapeutic effect on serum uric acid levels and renal function in a high-risk tumor lysis syndrome patient (Example 1)", "experimental": "In order to investigate the therapeutic effects of febuxostat on a high-risk tumor lysis syndrome patient, a high-risk patient with tumor lysis syndrome which had occurred without antitumor therapy, and already presented hyperuricemia, was given transfusions of fresh frozen plasma and packed red blood cells, and then in addition to increasing a urine volume by supplying fluid and to alkalizing urine, febuxostat (60 mg) was orally administered for 3 days, and the serum uric acid levels and renal function were compared with those before administration of febuxostat.\nA person, Myelodysplastic syndrome (MDS), White blood cell count (WBC) 15400/μL"}, "[2]": {"system": "patients with hematological malignancies at low or intermediate risk for tumor lysis syndrome", "assay": "Prophylactic effect on serum uric acid, renal function and urinary uric acid excretion in patients with hematological malignancies receiving chemotherapy (Example 2)", "experimental": "In order to investigate the prophylactic effects of febuxostat on tumor lysis syndrome, 10 mg of febuxostat (the starting dose in gout and hyperuricemia) was orally administered once a day, daily, from just before or the day before chemotherapy was performed on patients with hematological malignancies at low or intermediate risk for tumor lysis syndrome, and the serum uric acid level and the renal function on the fifth day of administration were compared with those before the start of febuxostat administration. For cases in which urine collection was possible, the urinary excretion level of uric acid on the fifth day of administration was compared with that before the start of febuxostat administration. […] Seven male and female cases (6 males and 1 female), aged 36 to 79 (median 70), acute myeloid leukemia (AML 3 cases), diffuse large B-cell lymphoma (DLBCL 2 cases), chronic myelomonocytic leukemia (CMML 1 case), chronic myeloid leukemia (CML 1 case), white blood cell count (WBC) 3,200 to 347,000/μL [table]"}, "[3]": {"system": "malignant tumor patients with tumor lysis syndrome", "assay": "Prophylactic effect on serum uric acid levels when chemotherapy is performed on malignant tumor patients with tumor lysis syndrome (Example 3)", "settings": "oral once daily from before chemotherapy, adult and pediatric patients; written in present tense, no data", "experimental": "In order to investigate prophylactic effects of febuxostat on tumor lysis syndrome, febuxostat is orally administered once a day, daily, from before chemotherapy is performed on a malignant tumor adult patient with tumor lysis syndrome, and an assessment is made by using serum uric acid levels as indicators. In addition, also for a malignant tumor pediatric patient with tumor lysis syndrome, similar investigation is conducted with febuxostat."}},
  "data": [
    {"smiles": "Cc1nc(-c2ccc(OCC(C)C)c(C#N)c2)sc1C(=O)O", "note": "[febuxostat, 2-[3-cyano-4-(2-methylpropoxyl)phenyl]-4-methylthiazole-5-carboxylic acid]", "values": [
      {"measurement": "Serum creatinine (Cre)", "setting": "[1]; Day 4, after 3 days of febuxostat 60 mg/day, 0.87 mg/dL before administration", "value": 0.73, "unit": "mg/dL"},
      {"measurement": "Estimated glomerular filtration rate (eGFR)", "setting": "[1]; Day 4, after 3 days of febuxostat 60 mg/day, 53 mL/min before administration", "value": 64, "unit": "mL/min"},
      {"measurement": "Serum uric acid level (UA)", "setting": "[1]; Day 4, after 3 days of oral febuxostat 60 mg/day, person, MDS, 9.7 mg/dL on the day before administration", "value": 1.7, "unit": "mg/dL"},
      {"measurement": "Reduction of serum uric acid level", "setting": "[1]; Day 4 vs day before administration, febuxostat 60 mg/day for 3 days", "value": 82.4, "unit": "%"},
      {"measurement": "Serum uric acid level (UA), Case 2", "setting": "[2]; Case 2 (AML), fifth day of febuxostat 10 mg/day, 1.9 mg/dL before administration", "value": 2.3, "unit": "mg/dL"},
      {"measurement": "Urinary excretion level of uric acid (urinary UA), Case 2", "setting": "[2]; Case 2, fifth day of febuxostat 10 mg/day, 0.8 g/day before administration", "value": 1.6, "unit": "g/day"},
      {"measurement": "Estimated glomerular filtration rate (eGFR), Case 2", "setting": "[2]; Case 2, fifth day of febuxostat 10 mg/day, 101 mL/min before administration", "value": 99, "unit": "mL/min"},
      {"measurement": "Acute renal failure", "setting": "[2]; all cases, febuxostat 10 mg/day with chemotherapy", "value": "in all cases, acute renal failure was prevented"},
      {"measurement": "Serum uric acid levels relative to normal levels", "setting": "[2]; all cases, prophylactic febuxostat 10 mg with chemotherapy, normal level 7.5 mg/dL or less", "value": "maintain the serum uric acid levels within or lower them to within normal levels"},
      {"measurement": "Urinary excretion level of uric acid (urinary UA), average", "setting": "[2]; cases where urine collection was possible, fifth day of febuxostat 10 mg/day, 1.2 g/day on average before administration", "value": 0.9, "unit": "g/day"},
      {"measurement": "Serum uric acid level (UA), average", "setting": "[2]; fifth day of febuxostat 10 mg once daily oral, average of 7 cases, 6.3 mg/dL on average before administration", "value": 4.6, "unit": "mg/dL"},
      {"measurement": "Estimated glomerular filtration rate (eGFR), average", "setting": "[2]; fifth day of febuxostat 10 mg once daily, average, 69.7 mL/min on average before administration", "value": 76.9, "unit": "mL/min"},
      {"measurement": "Urinary excretion level of uric acid (urinary UA), severe case with high WBC", "setting": "[2]; severe case in which WBC was high, fifth day of febuxostat 10 mg/day, 2.4 g/day before administration", "value": 0.7, "unit": "g/day"},
      {"measurement": "Prevention of tumor lysis syndrome (serum uric acid levels as indicators)", "setting": "[3]", "value": "effective for the prevention of tumor lysis syndrome"}
    ]}
  ]
}
